Numbers after ± are expanded uncertainties.
Conditions: 303.15 K, 101.33 kPa, Liquid; for viscosity: Capillary tube (Ostwald / Ubbelohde) method; for speed of sound: Linear variable-path acoustic interferometer; for mass density: Pycnometric method

Question: What does the source list for `NCc1ccccc1` [benzylamine]?
Answer: viscosity: 1.43 ± 0.04 mPa·s; speed of sound: 1538.2 ± 2.1 m/s; mass density: 975.6 ± 1.1 kg/m3

Question: Which viscosity does the source give for `C1CCOC1` [tetrahydrofuran] here?
Answer: 0.46 ± 0.04 mPa·s

Question: What about the speed of sound of the same molecule?
Answer: 1252.2 ± 1.9 m/s

Question: And the mass density?
Answer: 876.5 ± 1.1 kg/m3

Question: For `CCCCCC` [hexane], which viscosity is on record?
Answer: 0.36 ± 0.04 mPa·s

Question: What about the speed of sound of the same molecule?
Answer: 1051.2 ± 1.9 m/s

Question: And the mass density?
Answer: 652.9 ± 1 kg/m3

Question: With `C1COCCO1` [1,4-dioxane] as the molecule, how does the viscosity read?
Answer: 1.08 ± 0.04 mPa·s

Question: What about the speed of sound of the same molecule?
Answer: 1321 ± 1.9 m/s

Question: And the mass density?
Answer: 1022.4 ± 1.1 kg/m3
